Laboratory results as given in patent publication US8017612B2, “Piperazine compound and use thereof as a HCV polymerase inhibitor” (priority 2006, dated 2011).

Tests used:
[1] = target: T1, HCV polymerase (NS5B) type 1b (Hepatitis C virus genotype 1b, UniProt P26663); test: Assay of enzyme (HCV polymerase) inhibitory activity, type 1b enzyme; format: biochemical, HCV BK strain (type 1b); details: HCV polymerase inhibitory activity (IC50), 1b, type 1b enzyme 0.5 μg/ml, 25° C., 60 min
T1 construct: a region encoding NS5B (J Virol 1991 March, 65(3), 1105-13, 544 amino acids after deletion of 47 amino acids on the C-terminal); 6xHis (C); made in house; host or cells: Escherichia coli
Procedure, shortened: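 Polymerase activity was followed as radiolabelled UTP incorporation by E. coli-expressed, His-tagged NS5B of HCV type 1b lacking its last 47 residues. Conditions: 2 μM UTP, 50 μM other NTPs, Mg2+ buffer at pH 7.5, 25 °C for 60 min. Inhibition relative to compound-free reactions gave IC50.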

[2] = target: T2, HCV polymerase (NS5B) type 1a (Hepatitis C virus genotype 1a, UniProt P26664); test: Assay of enzyme (HCV polymerase) inhibitory activity, type 1a enzyme; format: biochemical, HCV type 1a (cloned from the blood of patients); details: HCV polymerase inhibitory activity (IC50), 1a, type 1a enzyme 1.5 μg/ml, 25° C., 60 min
T2 construct: made in house; host or cells: Escherichia coli (by the 'similar method' of the 1b enzyme)
Procedure, shortened: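 IC50 values derive from radioactivity of newly synthesized RNA with versus without test compound. The enzyme was C-terminally truncated type 1a NS5B, 1.5 μg/ml, run 60 min at 25° C with 3H-UTP-labelled nucleotides.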

Compound | IC50 [1] [nM] | IC50 [2] [nM]
CC(C)c1ccc(CNC(=O)[C@H]2CN(c3cc(C(=O)O)nn3C)CCN2S(=O)(=O)c2ccc(C(F)(F)F)cc2)cc1 [Example 439, 5-[(R)-3-(4-isopropyl-benzylcarbamoyl)-4-(4-trifluoromethyl-benzenesulfonyl)-piperazin-1-yl]-1-methyl-1H-pyrazole-3-carboxylic acid] | 100 to 1000 | > 1000
CCCc1ccc(CNC(=O)[C@H]2CN(c3cnc(C(=O)O)cn3)CCN2S(=O)(=O)c2ccc(CCC)cc2)cc1 [Example 440, (R)-4-(4-propyl-benzenesulfonyl)-3-(4-propyl-benzylcarbamoyl)-3,4,5,6-tetrahydro-2H-[1,2′]bipyrazinyl-5′-carboxylic acid] | < 100 | < 100
CCCc1ccc(S(=O)(=O)N2CCN(c3cnc(C(=O)O)cn3)C[C@@H]2C(=O)NCc2ccc(CCC)cc2C)cc1 [Example 441, (R)-3-(2-methyl-4-propyl-benzylcarbamoyl)-4-(4-propyl-benzenesulfonyl)-3,4,5,6-tetrahydro-2H-[1,2′]bipyrazinyl-5′-carboxylic acid] | < 100 | < 100
CCOc1ccc(CNC(=O)[C@H]2CN(c3nc(C)c(C(=O)O)s3)CCN2S(=O)(=O)c2ccc(OC(F)(F)F)cc2)cc1 [Example 442, 2-[(R)-3-(4-ethoxy-benzylcarbamoyl)-4-(4-trifluoromethoxy-benzenesulfonyl)-piperazin-1-yl]-4-methyl-thiazole-5-carboxylic acid] | < 100 | 100 to 1000
CC(C)c1ccc(CNC(=O)[C@H]2CN(c3cnc(C(=O)O)c(N)n3)CCN2S(=O)(=O)c2ccc(C(F)(F)F)cc2)cc1 [Example 443, (R)-6′-amino-3-(4-isopropyl-benzylcarbamoyl)-4-(4-trifluoromethyl-benzenesulfonyl)-3,4,5,6-tetrahydro-2H-[1,2′]bipyrazinyl-5′-carboxylic acid] | < 100 | 100 to 1000
CCCc1ccc(CNC(=O)[C@H]2CN(c3nc(C(F)(F)F)c(C(=O)OCC)s3)CCN2S(=O)(=O)c2ccc(OC(F)(F)F)cc2)cc1 [Example 444, 2-[(R)-3-(4-propyl-benzylcarbamoyl)-4-(4-trifluoromethoxy-benzenesulfonyl)-piperazin-1-yl]-4-trifluoromethyl-thiazole-5-carboxylic acid ethyl ester] | 100 to 1000 | 100 to 1000
CC(C)c1ccc(CNC(=O)[C@H]2CN(c3cc(C(=O)O)n(C)n3)CCN2S(=O)(=O)c2ccc(C(F)(F)F)cc2)cc1 [Example 445, 5-[(R)-3-(4-isopropyl-benzylcarbamoyl)-4-(4-trifluoromethyl-benzenesulfonyl)-piperazin-1-yl]-2-methyl-2H-pyrazole-3-carboxylic acid] | < 100 | 100 to 1000
Cc1nc(N2CCN(S(=O)(=O)c3ccc(C(F)(F)F)cc3)[C@@H](C(=O)NCc3ccc(C(C)C)cc3)C2)sc1C(=O)NS(C)(=O)=O [Example 446, (R)-4-(5-methanesulfonylaminocarbonyl-4-methyl-thiazol-2-yl)-1-(4-trifluoromethyl-benzenesulfonyl)-piperazine-2-carboxylic acid 4-isopropyl-benzylamide] | < 100 | 100 to 1000
CCCc1ccc(CNC(=O)[C@H]2CN(c3nc(C)c(C(=O)NS(C)(=O)=O)s3)CCN2S(=O)(=O)c2ccc(OC(F)(F)F)cc2)cc1 [Example 447, (R)-4-(5-methanesulfonylaminocarbonyl-4-methyl-thiazol-2-yl)-1-(4-trifluoromethoxy-benzenesulfonyl)-piperazine-2-carboxylic acid 4-propyl-benzylamide] | < 100 | 100 to 1000
CCC(F)(F)c1ccc(CNC(=O)[C@H]2CN(c3nc(C)c(C(=O)O)s3)CCN2S(=O)(=O)c2ccc(OC(F)(F)F)cc2)cc1 [Example 448, 2-[(R)-3-[4-(1,1-difluoro-propyl)-benzylcarbamoyl]-4-(4-trifluoromethoxy-benzenesulfonyl)-piperazin-1-yl]-4-methyl-thiazole-5-carboxylic acid] | < 100 | < 100
CCCc1ccc(CNC(=O)[C@H]2CN(c3cnc(C(=O)O)c(C)n3)CCN2S(=O)(=O)c2ccc(OC(F)(F)F)cc2)cc1 [Example 449, (R)-6′-methyl-3-(4-propyl-benzylcarbamoyl)-4-(4-trifluoromethoxy-benzenesulfonyl)-3,4,5,6-tetrahydro-2H-[1,2′]bipyrazinyl-5′-carboxylic acid] | < 100 | < 100
CCCc1ccc(CNC(=O)[C@H]2CN(C(C)=O)CCN2S(=O)(=O)c2ccc(OC(F)(F)F)cc2)cc1 [Example 450, (R)-4-acetyl-1-(4-trifluoromethoxy-benzenesulfonyl)-piperazine-2-carboxylic acid 4-propyl-benzylamide] | < 100 | < 100
COCc1ccc(CNC(=O)[C@H]2CN(c3nc(C)c(C(=O)O)s3)CCN2S(=O)(=O)c2ccc(OC(F)(F)F)cc2)cc1 [Example 451, 2-[(R)-3-(4-methoxymethyl-benzylcarbamoyl)-4-(4-trifluoromethoxy-benzenesulfonyl)-piperazin-1-yl]-4-methyl-thiazole-5-carboxylic acid] | < 100 | < 100
CCCc1ccc(CNC(=O)[C@H]2CN(c3nc(C)c(CO)s3)CCN2S(=O)(=O)c2ccc(OC(F)(F)F)cc2)cc1 [Example 452, (R)-4-(5-hydroxymethyl-4-methyl-thiazol-2-yl)-1-(4-trifluoromethoxy-benzenesulfonyl)-piperazine-2-carboxylic acid 4-propyl-benzylamide] | < 100 | < 100
CCCc1ccc(CNC(=O)[C@H]2CN(c3nc(C(F)(F)F)c(C(=O)O)s3)CCN2S(=O)(=O)c2ccc(OC(F)(F)F)cc2)cc1 [Example 453, 2-[(R)-3-(4-propyl-benzylcarbamoyl)-4-(4-trifluoromethoxy-benzenesulfonyl)-piperazin-1-yl]-4-trifluoromethyl-thiazole-5-carboxylic acid] | < 100 | < 100
CCCc1ccc(CNC(=O)[C@H]2CN(c3cc(C)c(O)nn3)CCN2S(=O)(=O)c2ccc(OC(F)(F)F)cc2)cc1 [Example 454, (R)-4-(6-hydroxy-5-methyl-pyridazin-3-yl)-1-(4-trifluoromethoxy-benzenesulfonyl)-piperazine-2-carboxylic acid 4-propyl-benzylamide] | < 100 | < 100
CCCc1ccc(CNC(=O)[C@H]2CN(C(=O)Cn3nnc(CC(=O)OCC)n3)CCN2S(=O)(=O)c2ccc(OC(F)(F)F)cc2)cc1 [Example 455, (2-{2-oxo-2-[(R)-3-(4-propyl-benzylcarbamoyl)-4-(4-trifluoromethoxy-benzenesulfonyl)-piperazin-1-yl]-ethyl}-2H-tetrazol-5-yl)-acetic acid ethyl ester] | < 100 | < 100
CCCc1ccc(CNC(=O)[C@H]2CN(C(=O)Cn3nnnc3C)CCN2S(=O)(=O)c2ccc(OC(F)(F)F)cc2)cc1 [Example 456, (R)-4-[2-(5-methyl-tetrazol-1-yl)-acetyl]-1-(4-trifluoromethoxy-benzenesulfonyl)-piperazine-2-carboxylic acid 4-propyl-benzylamide] | < 100 | < 100
CCCc1ccc(CNC(=O)[C@H]2CN(C(=O)Cn3nnc(C)n3)CCN2S(=O)(=O)c2ccc(OC(F)(F)F)cc2)cc1 [Example 457, (R)-4-[2-(5-methyl-tetrazol-2-yl)-acetyl]-1-(4-trifluoromethoxy-benzenesulfonyl)-piperazine-2-carboxylic acid 4-propyl-benzylamide] | < 100 | < 100
CCCc1ccc(CNC(=O)[C@H]2CN(c3ccc(N)cn3)CCN2S(=O)(=O)c2ccc(OC(F)(F)F)cc2)cc1 [Example 458, (R)-4-(5-amino-pyridin-2-yl)-1-(4-trifluoromethoxy-benzenesulfonyl)-piperazine-2-carboxylic acid 4-propyl-benzylamide] | < 100 | < 100
CCC(F)(F)c1ccc(CNC(=O)[C@H]2CN(C(C)=O)CCN2S(=O)(=O)c2ccc(OC(F)(F)F)cc2)cc1 [Example 459, (R)-4-acetyl-1-(4-trifluoromethoxy-benzenesulfonyl)-piperazine-2-carboxylic acid 4-(1,1-difluoro-propyl)-benzylamide] | < 100 | < 100
CCCc1ccc(CNC(=O)[C@H]2CN(C(=O)Cn3ncnn3)CCN2S(=O)(=O)c2ccc(OC(F)(F)F)cc2)cc1 [Example 460, (R)-4-(2-tetrazol-2-yl-acetyl)-1-(4-trifluoromethoxy-benzenesulfonyl)-piperazine-2-carboxylic acid 4-propyl-benzylamide] | < 100 | < 100
CCCc1ccc(CNC(=O)[C@H]2CN(C(=O)Cn3cnnn3)CCN2S(=O)(=O)c2ccc(OC(F)(F)F)cc2)cc1 [Example 461, (R)-4-(2-tetrazol-1-yl-acetyl)-1-(4-trifluoromethoxy-benzenesulfonyl)-piperazine-2-carboxylic acid 4-propyl-benzylamide] | < 100 | < 100
